Target: T1, B1R receptor of the rat (rB1R) (Rattus norvegicus, UniProt P97583)
T1 construct: expressed in transfected cells; host or cells: CHO K1 cells
T1 sequence (P97583 1-337): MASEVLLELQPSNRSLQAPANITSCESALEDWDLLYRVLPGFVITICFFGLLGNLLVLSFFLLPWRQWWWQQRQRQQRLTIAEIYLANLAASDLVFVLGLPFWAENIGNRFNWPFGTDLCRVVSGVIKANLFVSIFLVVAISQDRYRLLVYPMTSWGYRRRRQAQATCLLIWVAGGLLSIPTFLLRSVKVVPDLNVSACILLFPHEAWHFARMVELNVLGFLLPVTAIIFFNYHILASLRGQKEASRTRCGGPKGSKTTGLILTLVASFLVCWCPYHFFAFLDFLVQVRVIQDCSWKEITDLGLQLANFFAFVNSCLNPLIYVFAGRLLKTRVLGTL
Experiment: Functional investigation on the bradykinin 1 receptor (B1R), FLIPR Ca2+ assay, rB1R cells
Type: cell-based
Conditions: CHO-K1, 10 μM test substance; CHO K1 cells with rat B1R; agonist Des-Arg9 bradykinin; % of maximum achievable inhibition; read-out: B1R antagonism, rat [10 μM] % inhibition
How it was run: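 Cells plated at 20,000-35,000/well, incubated overnight at 37° C, loaded with Fluo-4 (2.13 μM, 60 min, 37° C, or 2.5 μM in buffer A), then read in FLIPR (λex 488, λem 540 nm). Agonist: Lys-Des-[MUT] bradykinin (0.5 nM) or Des-[MUT] bradykinin (100 nM). IC50 from % inhibition versus maximum, n=2-3, N>=2.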

inhibition at 10 µM: 100%
SMILES: COc1cc(C)c(S(=O)(=O)Nc2cccc3ccn(CC(=O)N4CCC5(CC4)CCN(c4ccncc4)CC5)c23)c(C)c1 [G_CC-91, 4-Methoxy-2,6-dimethyl-N-[1-[2-oxo-2-(3-pyridin-4-yl-3,9-diazaspiro-[5.5]undecan-9-yl)-ethyl]-1H-indol-7-yl]-benzenesulfonic acid amide]
